Measurements published in PubChem BioAssay AID248 (DTP/NCI, 2004).
Values joined by “and” are separate entries in the source; they are usually repeats but may differ in a detail not shown here. Equal values may be shown once. Inconclusive results and toxic doses are left out. Rule as the data show it: active = T/C of 150% or more; inactive = T/C below 125%.

Tested on: L1210 leukemia ip in BDF1 mice, survival T/C
Test: NCI In Vivo Anticancer Drug Screen. Data for tumor model L1210 Leukemia (intraperitoneal) in B6D2F1 (BDF1) mice
Settings: endpoint: mean survival time, higher = longer survival
How it was run: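 Transplanted-tumor mice were given test agent; controls received vehicle only. Survival readings from the two groups were divided (treated over control).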

[1] = dose: 100.0 mg/kg/injection, schedule: Q04DX003 (ip), vehicle: Klucel (hydroxypropylcellulose) (HPC)
[2] = dose: 200.0 mg/kg/injection, schedule: Q04DX003 (ip), vehicle: Klucel (hydroxypropylcellulose) (HPC)
[3] = dose: 400.0 mg/kg/injection, schedule: Q04DX003 (ip), vehicle: Klucel (hydroxypropylcellulose) (HPC)
[4] = dose: 50.0 mg/kg/injection, schedule: Q01DX009 (ip), vehicle: saline with Tween-80
[5] = dose: 100.0 mg/kg/injection, schedule: Q01DX009 (ip), vehicle: saline with Tween-80
[6] = dose: 100.0 mg/kg/injection, schedule: Q04DX003 (ip), vehicle: saline with Tween-80
[7] = dose: 100.0 mg/kg/injection, schedule: Q01DX009 (ip), vehicle: Klucel (hydroxypropylcellulose) (HPC)
[8] = dose: 100.0 mg/kg/injection, schedule: Q04DX003 (ip), vehicle: saline
[9] = dose: 50.0 mg/kg/injection, schedule: Q01DX009 (ip), vehicle: Klucel (hydroxypropylcellulose) (HPC)
[10] = dose: 200.0 mg/kg/injection, schedule: Q01DX009 (ip), vehicle: Klucel (hydroxypropylcellulose) (HPC)
[11] = dose: 50.0 mg/kg/injection, schedule: Q01DX009 (ip), vehicle: saline
[12] = dose: 100.0 mg/kg/injection, schedule: Q01DX009 (ip), vehicle: saline
[13] = dose: 200.0 mg/kg/injection, schedule: Q01DX009 (ip), vehicle: saline
[14] = dose: 200.0 mg/kg/injection, schedule: Q04DX003 (ip), vehicle: saline
[15] = dose: 400.0 mg/kg/injection, schedule: Q01DX009 (ip), vehicle: Klucel (hydroxypropylcellulose) (HPC)
[16] = dose: 200.0 mg/kg/injection, schedule: Q01DX009 (ip), vehicle: saline with Tween-80
[17] = dose: 100.0 mg/kg/injection, schedule: Q01DX001 (ip), vehicle: carboxymethylcellulose (CMC)
[18] = dose: 200.0 mg/kg/injection, schedule: Q01DX001 (ip), vehicle: carboxymethylcellulose (CMC)
[19] = dose: 400.0 mg/kg/injection, schedule: Q01DX001 (ip), vehicle: carboxymethylcellulose (CMC)

Measured: T/C

CCOC(=O)c1ccccc1NC(=O)Nc1cc([N+](=O)[O-])ccc1F
inactive: [1] 88 % of control | [2] 92 % of control | [3] 86 % of control

[O-][n+]1c(CCl)nc2cccc3c2c1-c1ccccc1-3
inactive: dose: 25.0 mg/kg/injection, schedule: Q01DX009 (ip), vehicle: saline with Tween-80 108 % of control | [4] 110 % of control | dose: 50.0 mg/kg/injection, schedule: Q04DX003 (ip), vehicle: saline with Tween-80 102 % of control | [5] 104 % of control | [6] 107 % of control

Cc1cc2c([N+](=O)[O-])c3cccnn3c2nn1
inactive: dose: 50.0 mg/kg/injection, schedule: Q04DX002 (ip), vehicle: Klucel (hydroxypropylcellulose) (HPC) 114 % of control | dose: 100.0 mg/kg/injection, schedule: Q04DX002 (ip), vehicle: Klucel (hydroxypropylcellulose) (HPC) 111 % of control | dose: 200.0 mg/kg/injection, schedule: Q04DX002 (ip), vehicle: Klucel (hydroxypropylcellulose) (HPC) 91 % of control

O=C(O)c1ccc(Cl)cc1Nc1ccc(F)cc1
inactive: dose: 100.0 mg/kg/injection, schedule: Q01DX001 (ip), vehicle: Klucel (hydroxypropylcellulose) (HPC) 100 % of control | [7] 96 % of control | dose: 200.0 mg/kg/injection, schedule: Q01DX001 (ip), vehicle: Klucel (hydroxypropylcellulose) (HPC) 100 % of control | dose: 400.0 mg/kg/injection, schedule: Q01DX001 (ip), vehicle: Klucel (hydroxypropylcellulose) (HPC) 100 % of control

O=C(c1ccc(Br)cc1)C1C(c2ccccc2)N1C1CCCCC1 (stereo not drawn)
inactive: [1] 98 % of control | [2] 96 % of control | [3] 93 % of control

C=C(C)C1C2OC2C(=O)C2=CCCC(C)C21C (stereo not drawn)
inactive: dose: 25.0 mg/kg/injection, schedule: Q04DX003 (ip), vehicle: saline 97 % of control | dose: 50.0 mg/kg/injection, schedule: Q04DX003 (ip), vehicle: saline 100 % of control | [8] 100 % of control

CC(=O)OCC1OCOC2C1OC1OCOC12 (stereo not drawn)
inactive: dose: 100.0 mg/kg/injection, schedule: Q04DX002 (ip), vehicle: saline with Tween-80 104 % of control | dose: 200.0 mg/kg/injection, schedule: Q04DX002 (ip), vehicle: saline with Tween-80 104 % of control | dose: 400.0 mg/kg/injection, schedule: Q04DX002 (ip), vehicle: saline with Tween-80 118 % of control

CCCCCCCCCC(C)NC(=O)CCl (stereo not drawn)
inactive: [9] 87 % of control | [7] 97 % of control | [10] 90 % of control

O=C(/C=C\C(=O)c1ccc(Cl)cc1)c1ccc(Cl)cc1
inactive: dose: 50.0 mg/kg/injection, schedule: Q04DX003 (ip), vehicle: carboxymethylcellulose (CMC) 104 % of control | dose: 100.0 mg/kg/injection, schedule: Q04DX003 (ip), vehicle: carboxymethylcellulose (CMC) 112 % of control | dose: 200.0 mg/kg/injection, schedule: Q04DX003 (ip), vehicle: carboxymethylcellulose (CMC) 102 % of control

O=P(OCc1ccccc1)(OCc1ccccc1)C(Nc1ccccc1)c1ccccc1 (stereo not drawn)
inactive: [9] 100 % of control | [7] 103 % of control | [1] 100 % of control | [10] 103 % of control | [2] 94 % of control | [3] 93 % of control

c1ccc(C[N+]23CC[N+](Cc4ccccc4)(CC2)CC3)cc1
inactive: [11] 107 % of control | [12] 111 % of control | [8] 97 % of control | [13] 114 % of control | [14] 100 % of control

COc1cc(C)c2cccc(OC)c2n1
inactive: [7] 114 % of control | [1] 105 % of control | [10] 108 % of control | [2] 90 % of control | [15] 98 % of control | [3] 94 % of control

CCc1cccc(CC)c1N(C(C)=O)C(C)=O
inactive: [5] 98 % of control | [16] 104 % of control | dose: 400.0 mg/kg/injection, schedule: Q01DX009 (ip), vehicle: saline with Tween-80 102 % of control

CCc1cccc[n+]1Cc1ccccc1
inactive: [11] 90 % of control

O=C(O)C(Cc1ccsc1)C(=O)O
inactive: dose: 100.0 mg/kg/injection, schedule: Q01DX001 (ip), vehicle: saline 101 % of control | dose: 200.0 mg/kg/injection, schedule: Q01DX001 (ip), vehicle: saline 93 % of control

CCCCCCC(=O)OCCN1CCN(CC/C=C2\c3ccccc3Sc3ccc(C(F)(F)F)cc32)CC1
inactive: dose: 50.0 mg/kg/injection, schedule: Q01DX001 (ip), vehicle: carboxymethylcellulose (CMC) 94 % of control | [11] 123 % of control | [17] 92 % of control | [12] 108 % of control | dose: 132.0 mg/kg/injection, schedule: Q04DX003 (ip), vehicle: saline 103 % of control | [18] 94 % of control | [14] 110 % of control | [19] 94 % of control

CC[N+](C)(C)C1CCCCC1
inactive: dose: 75.0 mg/kg/injection, schedule: Q01DX001 (ip), vehicle: saline 94 % of control

COc1ccc(CC/C(=N/O)c2ccccc2)cc1
inactive: dose: 50.0 mg/kg/injection, schedule: Q01DX001 (ip), vehicle: other 94 % of control | dose: 100.0 mg/kg/injection, schedule: Q01DX001 (ip), vehicle: other 100 % of control | dose: 200.0 mg/kg/injection, schedule: Q01DX001 (ip), vehicle: other 90 % of control | dose: 400.0 mg/kg/injection, schedule: Q01DX001 (ip), vehicle: other 102 % of control

CC(=O)Nc1cc2[nH]c(=O)c3ccccc3c2cc1Cl
inactive: [17] 100 % of control | [18] 105 % of control | [19] 93 % of control

Cc1cccc([N+](=O)[O-])c1-c1ccccc1C(=O)O
inactive: dose: 50.0 mg/kg/injection, schedule: Q04DX003 (ip), vehicle: Klucel (hydroxypropylcellulose) (HPC) 88 % of control | [7] 93 % of control and 95 % of control | [1] 94 % of control | [10] 96 % of control and 103 % of control | [2] 100 % of control | [15] 97 % of control

O=c1[nH]nc(S(=O)(=O)NC2CCCCC2)c(=O)[nH]1
inactive: [17] 101 % of control | [18] 95 % of control | [19] 110 % of control

C=CCOc1cccc(OCC=C)c1C
inactive: [6] 100 % of control | dose: 200.0 mg/kg/injection, schedule: Q04DX003 (ip), vehicle: saline with Tween-80 98 % of control | dose: 400.0 mg/kg/injection, schedule: Q04DX003 (ip), vehicle: saline with Tween-80 98 % of control

CN(C)Cc1ccc(N)cc1
inactive: dose: 10.0 mg/kg/injection, schedule: Q01DX009 (ip), vehicle: water 107 % of control | dose: 20.0 mg/kg/injection, schedule: Q01DX009 (ip), vehicle: water 105 % of control | dose: 40.0 mg/kg/injection, schedule: Q01DX009 (ip), vehicle: water 107 % of control | dose: 50.0 mg/kg/injection, schedule: Q01DX009 (ip), vehicle: water 91 % of control | dose: 80.0 mg/kg/injection, schedule: Q01DX009 (ip), vehicle: water 96 % of control | dose: 100.0 mg/kg/injection, schedule: Q01DX009 (ip), vehicle: water 88 % of control | dose: 100.0 mg/kg/injection, schedule: Q04DX003 (ip), vehicle: water 100 % of control | dose: 200.0 mg/kg/injection, schedule: Q04DX003 (ip), vehicle: water 102 % of control

CNc1nc(Cl)nc2ccccc12
inactive: [4] 105 % of control | [5] 112 % of control | [16] 102 % of control

Cc1cccc(C(=O)NN)n1
inactive: dose: 12.5 mg/kg/injection, schedule: Q01DX009 (ip), vehicle: saline 94 % of control | dose: 25.0 mg/kg/injection, schedule: Q01DX009 (ip), vehicle: saline 105 % of control

CC(C(N)=O)N1C(=O)C2C3CCC(O3)C2C1=O (stereo not drawn)
inactive: [8] 97 % of control | [14] 97 % of control | dose: 400.0 mg/kg/injection, schedule: Q04DX003 (ip), vehicle: saline 97 % of control

CCC[N+]12CC=C3COC(=O)C(C)(O)C(C)(O)C(C)C(=O)OC(CC1)C32 (stereo not drawn)
inactive: [11] 92 % of control | [12] 95 % of control | [13] 95 % of control

CCCCCCC#CC(=O)OCCCCCC
inactive: dose: 100.0 mg/kg/injection, schedule: Q04DX002 (ip), vehicle: saline 108 % of control | dose: 200.0 mg/kg/injection, schedule: Q04DX002 (ip), vehicle: saline 94 % of control | dose: 400.0 mg/kg/injection, schedule: Q04DX002 (ip), vehicle: saline 97 % of control
